According to patent US9884832B2 (priority 2011, dated 2018):
Read-outs that look alike come from different tables or passages of the source.

Columns and labels:
[1] = molecular target: AM2 S31N (serine→asparagine mutation at residue 31 in the M2 protein) (Influenza A virus, UniProt P0DOF5, S31N); format: cell-based, influenza virus A/Udorn/72
[2] = molecular target: AM2 V27A (valine→alanine mutation at residue 27 in the M2 protein) (Influenza A virus, UniProt P0DOF5, V27A); format: cell-based, influenza virus A/Udorn/72

FC(F)(F)c1ccc(CNC23CC4CC(CC(C4)C2)C3)cc1 [Example 5a, Adamantan-1-yl-(4-trifluoromethyl-benzyl)-amine]
S31N OOcyte Inhibition at 100 uM (%) [1]: B (key: (A)=31-95%; (B)=0-30%)
V27A OOcyte Inhibition at 100 uM (%) [2]: B (key: (A)=31-95%; (B)=0-30%)

c1cc(-c2csc(CNC34CC5CC(CC(C5)C3)C4)c2)cs1 [Example 152a, N-([3,3′-bithiophen]-5-ylmethyl)adamantan-1-amine]
S31N OOcyte Inhibition at 100 uM (%) [1]: B (key: (A)=31-95%; (B)=0-30%)
V27A OOcyte Inhibition at 100 uM (%) [2]: A (key: (A)=31-95%; (B)=0-30%)

F[B-](F)(F)C[NH2+]C12CC3CC(CC(C3)C1)C2 [Example 204a, N-[(Trifluoro-4-boranyl)methyl]adamantan-1-aminium]
S31N OOcyte Inhibition at 100 uM (%) [1]: B (key: (A)=31-95%; (B)=0-30%)
V27A OOcyte Inhibition at 100 uM (%) [2]: B (key: (A)=31-95%; (B)=0-30%)

c1cnn(-c2ccc(CNC34CC5CC(CC(C5)C3)C4)cc2)c1 [Example 35, Adamantan-1-yl-(4-pyrazol-1-yl-benzyl)-amine]
S31N OOcyte Inhibition at 100 uM (%) ([1]; pH 5.5): B (key: (A)=31-95%; (B)=0-30%)
V27A OOcyte Inhibition at 100 uM (%) ([2]; pH 5.5): B (key: (A)=31-95%; (B)=0-30%)

Cn1cc(C(F)(F)F)c(-c2ccc(CNC34CC5CC(CC(C5)C3)C4)s2)n1 [Example 155a, N-((5-(1-methyl-4-(trifluoromethyl)-1H-pyrazol-3-yl)thiophen-2-yl)methyl)adamantan-1-amine]
S31N OOcyte Inhibition at 100 uM (%) [1]: B (key: (A)=31-95%; (B)=0-30%)
V27A OOcyte Inhibition at 100 uM (%) [2]: B (key: (A)=31-95%; (B)=0-30%)

Oc1ccc(CNC2C3CC4CC(C3)CC2C4)cc1O (stereo not shown) [Example 101, 4-(Adamantan-2-ylaminomethyl)-benzene-1,2-diol]
S31N OOcyte Inhibition at 100 uM (%) ([1]; pH 5.5): B (key: (A)=31-95%; (B)=0-30%)
V27A OOcyte Inhibition at 100 uM (%) ([2]; pH 5.5): B (key: (A)=31-95%; (B)=0-30%)

Cc1ncc(-c2ccc(CNC34CC5CC(CC(C5)C3)C4)s2)s1 [Example 154a, N-((5-(2-methylthiazol-5-yl)thiophen-2-yl)methyl)adamantan-1-amine]
S31N OOcyte Inhibition at 100 uM (%) [1]: A (key: (A)=31-95%; (B)=0-30%)
V27A OOcyte Inhibition at 100 uM (%) [2]: A (key: (A)=31-95%; (B)=0-30%)

CC(NC1C2CC3CC(C2)CC1C3)c1ccc(O)cc1O (stereo not shown) [Example 102, 4-[1-(Adamantan-2-ylamino)-ethyl]-benzene-1,3-diol]
S31N OOcyte Inhibition at 100 uM (%) ([1]; pH 5.5): B (key: (A)=31-95%; (B)=0-30%)
V27A OOcyte Inhibition at 100 uM (%) ([2]; pH 5.5): A (key: (A)=31-95%; (B)=0-30%)

Oc1ccc(CNC23CC4CC(CC(C4)C2)C3)c(O)c1O [Example 65, 4-(Adamantan-1-ylaminomethyl)-benzene-1,2,3-triol]
S31N OOcyte Inhibition at 100 uM (%) ([1]; pH 5.5): B (key: (A)=31-95%; (B)=0-30%)
V27A OOcyte Inhibition at 100 uM (%) ([2]; pH 5.5): A (key: (A)=31-95%; (B)=0-30%)

Oc1ccc(CNC23CC4CC(CC(C4)C2)C3)c(O)c1 [Example 46, 4-(Adamantan-1-ylaminomethyl)-benzene-1,3-diol]
S31N OOcyte Inhibition at 100 uM (%) ([1]; pH 5.5): A (key: (A)=31-95%; (B)=0-30%)
V27A OOcyte Inhibition at 100 uM (%) ([2]; pH 5.5): A (key: (A)=31-95%; (B)=0-30%)

c1cc2sc(CNC34CC5CC(CC(C5)C3)C4)cc2s1 [Example 81, Adamantan-1-yl-thieno[3,2-b]thiophen-2-ylmethyl-amine]
S31N OOcyte Inhibition at 100 uM (%) ([1]; pH 5.5): A (key: (A)=31-95%; (B)=0-30%)
V27A OOcyte Inhibition at 100 uM (%) ([2]; pH 5.5): B (key: (A)=31-95%; (B)=0-30%)

CCSc1ccc(CNC23CC4CC(CC(C4)C2)C3)cc1 [Example 12a, N-(4-(ethylthio)benzyl)adamantan-1-amine]
S31N OOcyte Inhibition at 100 uM (%) [1]: A (key: (A)=31-95%; (B)=0-30%)
V27A OOcyte Inhibition at 100 uM (%) [2]: B (key: (A)=31-95%; (B)=0-30%)

c1nc(-c2ccc(CNC34CC5CC(CC(C5)C3)C4)cc2)no1 [Example 40, Adamantan-1-yl-(4-[1,2,4]oxadiazol-3-yl-benzyl)-amine]
S31N OOcyte Inhibition at 100 uM (%) ([1]; pH 5.5): A (key: (A)=31-95%; (B)=0-30%)
V27A OOcyte Inhibition at 100 uM (%) ([2]; pH 5.5): B (key: (A)=31-95%; (B)=0-30%)

c1cc2cc(CNC34CC5CC(CC(C5)C3)C4)sc2o1 [Example 83, Adamantan-1-yl-thieno[2,3-b]furan-5-ylmethyl-amine]
S31N OOcyte Inhibition at 100 uM (%) ([1]; pH 5.5): A (key: (A)=31-95%; (B)=0-30%)
V27A OOcyte Inhibition at 100 uM (%) ([2]; pH 5.5): B (key: (A)=31-95%; (B)=0-30%)

OC12CC3CC(C1)CC(NCc1cccs1)(C3)C2 [Example 187a, 3-[(Thiophen-2-ylmethyl)-amino]adamantan-1-ol]
S31N OOcyte Inhibition at 100 uM (%) [1]: A (key: (A)=31-95%; (B)=0-30%)
V27A OOcyte Inhibition at 100 uM (%) [2]: B (key: (A)=31-95%; (B)=0-30%)

COc1ccc(CNC23CC4CC(CC(C4)C2)C3)c(OC)c1 [Example 59, Adamantan-1-yl-(2,4-dimethoxy-benzyl)-amine]
S31N OOcyte Inhibition at 100 uM (%) ([1]; pH 5.5): B (key: (A)=31-95%; (B)=0-30%)
V27A OOcyte Inhibition at 100 uM (%) ([2]; pH 5.5): B (key: (A)=31-95%; (B)=0-30%)

CC(C)(C)CC(C)(C)NCc1ccc(O)cc1O [Example 112, 4-[(1,1,3,3-Tetramethyl-butylamino)-methyl]-benzene-1,3-diol]
S31N OOcyte Inhibition at 100 uM (%) ([1]; pH 5.5): B (key: (A)=31-95%; (B)=0-30%)
V27A OOcyte Inhibition at 100 uM (%) ([2]; pH 5.5): A (key: (A)=31-95%; (B)=0-30%)

Oc1c(CNC23CC4CC(CC(C4)C2)C3)ccc2ccccc12 [Example 53a, 2-(Adamantan-1-ylaminomethyl)-naphthalen-1-ol]
S31N OOcyte Inhibition at 100 uM (%) [1]: A (key: (A)=31-95%; (B)=0-30%)
V27A OOcyte Inhibition at 100 uM (%) [2]: B (key: (A)=31-95%; (B)=0-30%)

CCOc1ccc(CNC23CC4CC(CC(C4)C2)C3)cc1 [Example 20, Adamantan-1-yl-(4-ethoxy-benzyl)-amine]
S31N OOcyte Inhibition at 100 uM (%) ([1]; pH 5.5): A (key: (A)=31-95%; (B)=0-30%)
V27A OOcyte Inhibition at 100 uM (%) ([2]; pH 5.5): B (key: (A)=31-95%; (B)=0-30%)

NC(=O)COc1ccc(CNC23CC4CC(CC(C4)C2)C3)cc1 [Example 39, 2-(4-((Adamantan-1-ylamino)methyl)phenoxy)acetamide]
S31N OOcyte Inhibition at 100 uM (%) ([1]; pH 5.5): B (key: (A)=31-95%; (B)=0-30%)
V27A OOcyte Inhibition at 100 uM (%) ([2]; pH 5.5): B (key: (A)=31-95%; (B)=0-30%)

O=[N+]([O-])c1ccc(CNC23CC4CC(CC(C4)C2)C3)cc1 [Example 19, Adamantan-1-yl-(4-nitro-benzyl)-amine]
S31N OOcyte Inhibition at 100 uM (%) ([1]; pH 5.5): B (key: (A)=31-95%; (B)=0-30%)
V27A OOcyte Inhibition at 100 uM (%) ([2]; pH 5.5): B (key: (A)=31-95%; (B)=0-30%)

NC(=O)c1ccc(CNC23CC4CC(CC(C4)C2)C3)cc1 [Example 18, 4-(Adamantan-1-ylaminomethyl)-benzamide]
S31N OOcyte Inhibition at 100 uM (%) ([1]; pH 5.5): B (key: (A)=31-95%; (B)=0-30%)
V27A OOcyte Inhibition at 100 uM (%) ([2]; pH 5.5): B (key: (A)=31-95%; (B)=0-30%)

Oc1ccc(CN2CC3CC4CC(C3)CC2C4)c(O)c1 [Example 116, 4-(4-Aza-tricyclo[4.3.1.13,8]undec-4-ylmethyl)-benzene-1,3-diol]
S31N OOcyte Inhibition at 100 uM (%) ([1]; pH 5.5): B (key: (A)=31-95%; (B)=0-30%)
V27A OOcyte Inhibition at 100 uM (%) ([2]; pH 5.5): A (key: (A)=31-95%; (B)=0-30%)

O=c1ccc2cc(CNC34CC5CC(CC(C5)C3)C4)ccc2o1 [Example 42a, 6-((adamantan-1-ylamino)methyl)-2H-chromen-2-one]
S31N OOcyte Inhibition at 100 uM (%) [1]: B (key: (A)=31-95%; (B)=0-30%)
V27A OOcyte Inhibition at 100 uM (%) [2]: B (key: (A)=31-95%; (B)=0-30%)

c1cc2[nH]c(CNC34CC5CC(CC(C5)C3)C4)cc2s1 [Example 80, Adamantan-1-yl-(4H-thieno[3,2-b]pyrrol-5-ylmethyl)-amine]
S31N OOcyte Inhibition at 100 uM (%) ([1]; pH 5.5): A (key: (A)=31-95%; (B)=0-30%)
V27A OOcyte Inhibition at 100 uM (%) ([2]; pH 5.5): B (key: (A)=31-95%; (B)=0-30%)

Cc1nc(CNC23CC4CC(CC(C4)C2)C3)c[nH]1 [Example 99a, N-((2-methyl-1H-imidazol-4-yl)methyl)adamantan-1-amine]
S31N OOcyte Inhibition at 100 uM (%) [1]: B (key: (A)=31-95%; (B)=0-30%)
V27A OOcyte Inhibition at 100 uM (%) [2]: B (key: (A)=31-95%; (B)=0-30%)
